Where “and” joins values, the source holds several entries; their conditions need not be identical. Equal values may be shown once. Toxic doses and inconclusive results are not listed.
System: CD2F1 mice, L1210 leukemia ip, survival T/C
Experiment: NCI In Vivo Anticancer Drug Screen. Data for tumor model L1210 Leukemia (intraperitoneal) in CD2F1 (CDF1) mice
Settings: endpoint: mean survival time, higher = longer survival
Procedure, shortened: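 Mice carrying a transplanted tumor received test compound or vehicle alone. The value is the measurement in the treated group divided by that in the vehicle-treated control group.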

[1] = dose: 100.0 mg/kg/injection, schedule: Q04DX003 (ip), vehicle: saline with Tween-80
[2] = dose: 200.0 mg/kg/injection, schedule: Q04DX003 (ip), vehicle: saline with Tween-80
[3] = dose: 400.0 mg/kg/injection, schedule: Q04DX003 (ip), vehicle: saline with Tween-80
[4] = dose: 75.0 mg/kg/injection, schedule: Q01DX001 (ip), vehicle: saline
[5] = dose: 150.0 mg/kg/injection, schedule: Q01DX001 (ip), vehicle: saline
[6] = dose: 100.0 mg/kg/injection, schedule: Q01DX001 (ip), vehicle: saline
[7] = dose: 200.0 mg/kg/injection, schedule: Q01DX001 (ip), vehicle: saline
[8] = dose: 400.0 mg/kg/injection, schedule: Q01DX001 (ip), vehicle: saline
[9] = dose: 100.0 mg/kg/injection, schedule: Q01DX009 (ip), vehicle: saline with Tween-80
[10] = dose: 200.0 mg/kg/injection, schedule: Q01DX009 (ip), vehicle: saline with Tween-80
[11] = dose: 400.0 mg/kg/injection, schedule: Q01DX009 (ip), vehicle: saline with Tween-80
[12] = dose: 300.0 mg/kg/injection, schedule: Q01DX001 (ip), vehicle: saline
[13] = dose: 100.0 mg/kg/injection, schedule: Q04DX003 (ip), vehicle: saline

Nc1nc(N)c2c(n1)NCN(CCc1ccccc1Cl)C2
T/C (dose: 0.75 mg/kg/injection, schedule: Q01DX009 (ip), vehicle: distilled water + Tween-80): 93 % of control
T/C (dose: 1.5 mg/kg/injection, schedule: Q01DX009 (ip), vehicle: distilled water + Tween-80): 98 % of control
T/C (dose: 3.0 mg/kg/injection, schedule: Q01DX009 (ip), vehicle: distilled water + Tween-80): 94 % of control
T/C (dose: 6.0 mg/kg/injection, schedule: Q01DX009 (ip), vehicle: distilled water + Tween-80): 100 % of control
T/C (dose: 12.0 mg/kg/injection, schedule: Q01DX009 (ip), vehicle: distilled water + Tween-80): 94 % of control
T/C (dose: 24.0 mg/kg/injection, schedule: Q01DX009 (ip), vehicle: distilled water + Tween-80): 102 % of control
T/C (dose: 48.0 mg/kg/injection, schedule: Q01DX009 (ip), vehicle: distilled water + Tween-80): 96 % of control
T/C (dose: 80.0 mg/kg/injection, schedule: Q01DX009 (ip), vehicle: distilled water + Tween-80): 96 % of control

OC(c1ccccc1)(c1ccccc1)C(Cc1ccccc1)Cc1ccccc1
T/C [1]: 102 % of control
T/C [2]: 100 % of control
T/C [3]: 94 % of control

C#CCOCC1CO1 (stereo unspecified)
T/C [4]: 95 % of control
T/C [5]: 87 % of control

CCOC(=O)C(Cc1ccc(C)cc1)P(=O)(OCC)OCC (stereo unspecified)
T/C [6]: 102 % of control
T/C [7]: 98 % of control
T/C [8]: 102 % of control

Cc1ccc(S(N)(=O)=O)cc1
T/C [9]: 94 % of control
T/C [10]: 97 % of control
T/C [11]: 102 % of control

CSc1nccc2ccccc12
T/C (dose: 12.5 mg/kg/injection, schedule: Q01DX009 (ip), vehicle: other): 106 % of control
T/C (dose: 25.0 mg/kg/injection, schedule: Q01DX009 (ip), vehicle: other): 106 % of control
T/C (dose: 50.0 mg/kg/injection, schedule: Q01DX009 (ip), vehicle: other): 106 % of control
T/C (dose: 100.0 mg/kg/injection, schedule: Q01DX009 (ip), vehicle: other): 106 % of control

CC(=O)Oc1cccc2c1C(=O)c1c(OC(C)=O)cc(C)cc1C2=O
T/C [6]: 101 % of control
T/C [7]: 101 % of control
T/C [8]: 98 % of control

Cn1cnc([N+](=O)[O-])c1[Se]c1nc(N)nc2c1ncn2C1OC(CO)C(O)C1O (stereo unspecified)
T/C (dose: 2.0 mg/kg/injection, schedule: Q01DX009 (ip), vehicle: distilled water + Tween-80): 114 % of control
T/C (dose: 4.0 mg/kg/injection, schedule: Q01DX009 (ip), vehicle: distilled water + Tween-80): 112 % of control
T/C (dose: 8.0 mg/kg/injection, schedule: Q01DX009 (ip), vehicle: distilled water + Tween-80): 108 % of control and 110 % of control
T/C (dose: 12.5 mg/kg/injection, schedule: Q01DX005 (ip), vehicle: saline): 166 % of control
T/C (dose: 25.0 mg/kg/injection, schedule: Q01DX005 (ip), vehicle: saline): 175 % of control
T/C (dose: 50.0 mg/kg/injection, schedule: Q01DX005 (ip), vehicle: saline): 176 % of control
T/C (dose: 64.0 mg/kg/injection, schedule: Q01DX009 (ip), vehicle: distilled water + Tween-80): 98 % of control

CC(=O)Oc1ccc2ncccc2c1Cc1c(OC(C)=O)ccc2ncccc12
T/C [4]: 90 % of control
T/C [12]: 91 % of control

CC[C@](C)(O)C(=O)O[C@H]1C(=O)O[C@@H]2C[C@H]3C(C)=CC(=O)[C@@H](O)[C@]3(C)[C@H]3[C@@]4(O)OC[C@]32[C@@H]1[C@@H](C)[C@H]4O
T/C (dose: 12.5 micrograms/kg/injection, schedule: Q01DX009 (ip), vehicle: saline with Tween-80): 101 % of control
T/C (dose: 25.0 micrograms/kg/injection, schedule: Q01DX009 (ip), vehicle: saline with Tween-80): 100 % of control
T/C (dose: 50.0 micrograms/kg/injection, schedule: Q01DX009 (ip), vehicle: saline with Tween-80): 105 % of control
T/C (dose: 100.0 micrograms/kg/injection, schedule: Q01DX009 (ip), vehicle: saline with Tween-80): 112 % of control

COc1cc(C=Nc2ccc(-c3nc(C)sc3C)cc2)ccc1N(CCCl)CCCl
T/C (dose: 25.0 mg/kg/injection, schedule: Q01DX001 (ip), vehicle: carboxymethylcellulose (CMC)): 155 % of control
T/C (dose: 50.0 mg/kg/injection, schedule: Q01DX001 (ip), vehicle: carboxymethylcellulose (CMC)): 97 % of control

O=C1C(Cl)=CC(=NS(=O)(=O)c2ccccc2)C=C1Cl
T/C (dose: 6.25 mg/kg/injection, schedule: Q04DX003 (ip), vehicle: saline with Tween-80): 100 % of control
T/C (dose: 12.5 mg/kg/injection, schedule: Q04DX003 (ip), vehicle: saline with Tween-80): 94 % of control
T/C (dose: 25.0 mg/kg/injection, schedule: Q04DX003 (ip), vehicle: saline with Tween-80): 103 % of control

COC(=O)c1[nH]cnc1/N=N\N(CCF)CCF
T/C (dose: 2.1 mg/kg/injection, schedule: Q01DX009 (ip), vehicle: carboxymethylcellulose (CMC)): 109 % of control
T/C (dose: 4.2 mg/kg/injection, schedule: Q01DX009 (ip), vehicle: carboxymethylcellulose (CMC)): 108 % of control

CNC(=S)NNC(=O)C(=O)NNC(=S)NC
T/C (dose: 100.0 mg/kg/injection, schedule: Q01DX001 (ip), vehicle: saline with Tween-80): 98 % of control
T/C (dose: 200.0 mg/kg/injection, schedule: Q01DX001 (ip), vehicle: saline with Tween-80): 98 % of control
T/C (dose: 400.0 mg/kg/injection, schedule: Q01DX001 (ip), vehicle: saline with Tween-80): 97 % of control

CCOc1cc(/C=N/NC(=O)C(O)c2ccccc2)ccc1O (stereo unspecified)
T/C [9]: 95 % of control
T/C [10]: 103 % of control
T/C [11]: 101 % of control

O=C(COc1ccc(Cl)c(Cl)c1)NCc1ccc(Cl)cc1
T/C [1]: 97 % of control
T/C [2]: 95 % of control
T/C [3]: 93 % of control

Brc1ccc([Si](c2ccccc2)(c2ccccc2)c2ccc(Br)cc2)cc1
T/C [1]: 102 % of control
T/C [2]: 108 % of control
T/C [3]: 106 % of control

Nc1nc(N)c2[nH]cnc2n1
T/C (dose: 12.5 mg/kg/injection, schedule: Q01DX005 (ip), vehicle: Klucel (hydroxypropylcellulose) (HPC)): 101 % of control
T/C (dose: 25.0 mg/kg/injection, schedule: Q01DX005 (ip), vehicle: Klucel (hydroxypropylcellulose) (HPC)): 101 % of control
T/C (dose: 50.0 mg/kg/injection, schedule: Q01DX005 (ip), vehicle: Klucel (hydroxypropylcellulose) (HPC)): 106 % of control
T/C (dose: 50.0 mg/kg/injection, schedule: Q04DX003 (ip), vehicle: saline with Tween-80): 95 % of control
T/C (dose: 100.0 mg/kg/injection, schedule: Q01DX005 (ip), vehicle: Klucel (hydroxypropylcellulose) (HPC)): 110 % of control
T/C [1]: 95 % of control
T/C [2]: 97 % of control
T/C [3]: 97 % of control

CC(C)C(=O)/C=C/c1ccccc1
T/C [1]: 102 % of control
T/C [2]: 103 % of control
T/C [3]: 102 % of control

CN(C)C(=O)c1ccc[n+](CC(=O)NCc2ccccc2)c1
T/C [13]: 98 % of control
T/C (dose: 200.0 mg/kg/injection, schedule: Q04DX003 (ip), vehicle: saline): 98 % of control

CN(C)CCCn1c2ccccc2c2cnccc21
T/C (dose: 25.0 mg/kg/injection, schedule: Q04DX003 (ip), vehicle: saline): 98 % of control
T/C (dose: 50.0 mg/kg/injection, schedule: Q04DX003 (ip), vehicle: saline): 110 % of control
T/C [13]: 113 % of control

COc1cccc(/C=N/[N+](C)(C)C)c1O
T/C (dose: 50.0 mg/kg/injection, schedule: Q01DX001 (ip), vehicle: saline): 107 % of control
T/C [6]: 101 % of control
T/C [7]: 97 % of control

O=S1(=O)CCC1
T/C [4]: 114 % of control
T/C [5]: 97 % of control
T/C [12]: 105 % of control

Nc1cccc2scnc12 (tested in a mixture with another compound)
T/C [1]: 104 % of control
T/C [2]: 98 % of control
T/C [3]: 95 % of control

Nc1ccc(CSc2ccc(Cl)cc2)cc1
T/C (dose: 400.0 mg/kg/injection, schedule: Q04DX002 (ip), vehicle: Klucel (hydroxypropylcellulose) (HPC)): 89 % of control

COc1ccc(CCNC2c3ccccc3C=Cc3ccccc32)cc1OC
T/C (dose: 50.0 mg/kg/injection, schedule: Q01DX001 (ip), vehicle: saline with Tween-80): 107 % of control
T/C [6]: 91 % of control
T/C [7]: 100 % of control

Nc1cc(Cl)c(Cl)cc1S(=O)(=O)NO
T/C [1]: 95 % of control
T/C [3]: 89 % of control

O=Cc1ccccc1O.O=Cc1ccccc1O.O=Cc1ccccc1O.[La]
T/C [1]: 89 % of control
T/C [2]: 98 % of control

Reference: PubChem BioAssay AID256 (DTP/NCI, 2004)
